Measurements: US20260126382A1, “INTELLIGENT NIR II PHOTOTHERMAL AND COLORIMETRIC SENSING TECHNOLOGY” (Nanyang Technological University, priority 2022, published 2026)

Legend:
myrosinase (Myr) [1] = assay: Effect of interfering substances (metal ions, small molecules, amino acids, EDTA) on the Myr test system; type: biochemical; conditions: interfering substances 1 mM, FIG. 17C
Procedure: (§1) For Myr detection, Sin (2.5 mM, 30 μL) and GOx (5 mg/mL, 10 μL, according to previous literature (Jiang, C. et al., RSC Adv. 2017, 7, 44463-44469)) were mixed with different concentrations of Myr first, and reacted at 37° C. for 30 min to generate H2O2. Then, an acetate buffer containing TMB and AuNPs was added into the aforementioned solution, incubated at 45° C. for 25 min, and cooled to room temperature. Afterward, the solution was used for the analysis of Myr enzyme activity.
For the anti-interference experiments discussed below, Sin (2.5 mM, 30 μL) and GOx (5 mg/mL, 10 μL) were mixed with different interfering substances first and reacted at 37° C. for 30 min. Then, acetate buffer containing TMB and AuNPs were added into the above solution, incubated at 45° C. for 25 min, and cooled to room temperature, and afterwards, the solution was used for photothermal and colorimetric analysis.

myrosinase (Myr) [2] = assay: Effect of Sin concentration on the Sin+Myr+GOx+TMB+AuNPs system; type: biochemical; conditions: Myr 0.5 mg/mL, GOx 0.5 mg/mL, TMB 1.5 mM, AuNPs 0.45 nM
Procedure: as §1
Before testing different Myr concentrations, it is necessary to determine the maximum Sin concentration that can be applied. FIG. 16 illustrates that when the concentration of Sin exceeds 0.75 mM, the working efficiency decreases and the blue color becomes faint because excess Sin binds to the active regulatory sites of Myr, thereby inhibiting the activity of Myr to hydrolyze Sin. As a result, 0.75 mM was selected as the maximum Sin concentration for detecting commercial Myr at varying concentrations and constructing a standard curve. As shown in FIGS. 17A-B and 18, when Sin was present at a concentration of 0.75 mM, Myr was detectable in the range of 0-345 mU/mL, and its linear detection range in the absorption spectrum was 0 to 172.5 mU/mL with an LOD of 2.96 mU/mL.

[3] = Peroxidase-like (POD-like) activity in the TMB+H2O2 system, Abs1064 nm; type: biochemical; conditions: TMB+H2O2 system with HRP, FIG. 11
[4] = natural enzyme, from literature; cited from earlier work

Row | Molecule | inhibitory effect on Myr activity (myrosinase (Myr) [1]) | further results
1 | [Cu+2] [Cu^2+] | strongest inhibitory effect | 
2 | N[C@@H](CS)C(=O)O [Cys] | inhibit Myr activity | 
3 | N[C@@H](CCC(=O)N[C@@H](CS)C(=O)NCC(=O)O)C(=O)O [GSH] | inhibit Myr activity | 
4 | C=CC/C(=N/OS(=O)(=O)[O-])S[C@@H]1OC(CO)[C@@H](O)C(O)C1O.[K+] (stereo partly shown) [Sin, Sinigrin] |  | Sin concentration above which working efficiency decreases (excess Sin inhibiting the activity of Myr) (myrosinase (Myr) [2]): exceeds 0.75 mM
5 | O=C1O[C@H]([C@@H](O)CO)C(O)=C1O [Vc, Vitamin C] | inhibit Myr activity | 
6 | horseradish peroxidase [HRP] |  | slope of Abs1064 nm vs. c(HRP) [3]: 0.04644 nM⁻¹; temperature beyond which activity is lost [4]: exceeds 50 °C
